Literature values as cited in PMC4287963 (Inorganic chemistry, 2009).

Conditions: Cu(II) complex of TETA; cited from earlier work

In the case of O=C(O)CN1CCCN(CC(=O)O)CCN(CC(=O)O)CCCN(CC(=O)O)CC1 [TETA], the “thermodynamic formation constant log K” value is listed as 21.9.
